Where “and” joins values, the source holds several entries; their conditions need not be identical. Identical values can stand only once.
Tested on: S. aureus strain UNT144-3
Test: S. aureus neutropenic lung model (murine pneumonia model)
Assay type: in vivo, Staphylococcus aureus
Details: neutropenic mice, 100 mg/kg SC at 2 and 6 hrs post-infection, CFU assessed 24 hr
Method: In a non-limiting example, the sensitivity of two S. aureus clinical isolates, UNT109-3 (NRS234, native valve endocarditis) and UNT144-3, that have been previously utilized in animal models of infection, was evaluated vs. the individual phage and the 4-phage cocktail. […] The virulence of the two strains was then evaluated in the murine lung infection model. Female Hsd:ICR(CD-1) mice (Harlan Laboratories, Houston, Tex.) were administered 150 and 100 mg/kg cyclophosphamide on day −4 and day −1 prior to infection to render them neutropenic. Groups of 5 mice were then anaesthetized by intraperitoneal (IP) injection of 0.15 mL of a mixture of ketamine HCl (100 mg/kg body weight) plus xylazine (10 mg/kg body weight). Once anaesthetized, mice were infected intranasally by placing drops on the external nares and allowing inhalation of the 50 μl inoculum. Twenty-four hours after infection, mice were euthanized by CO2 inhalation and lungs processed for bacterial titers. Bacterial counts were enumerated on Brain Heart Infusion agar (Difco™ Laboratories)+0.5% activated charcoal (Sigma-Aldrich) plates for ease of recovering and detecting S. aureus (Barr, J. G., et al., J Clin. Pathol. (1987) 40:372-376). […]
Three phage cocktail treatment groups were evaluated for efficacy: 2×10^10 PFU/mL per phage, 2×10^9 PFU/mL per phage, and 2×10^8 PFU/mL per phage. […]

SMILES: CN[C@H](CC(C)C)C(=O)N[C@H]1C(=O)N[C@@H](CC(N)=O)C(=O)N[C@H]2C(=O)N[C@H]3C(=O)N[C@H](C(=O)N[C@H](C(=O)O)c4cc(O)cc(O)c4-c4cc3ccc4O)[C@H](O)c3ccc(c(Cl)c3)Oc3cc2cc(c3O[C@@H]2O[C@H](CO)[C@@H](O)[C@H](O)[C@H]2O[C@H]2C[C@](C)(N)[C@H](O)[C@H](C)O2)Oc2ccc(cc2Cl)[C@H]1O [Vancomycin]
- Mean ± SD logo CFU/Lung Pair: 5.55 log10 CFU/lung pair and 5.55 ± 1.1 log10 CFU/lung pair
